Square brackets hold non-standard residues; d marks the D form. Peptide text beside a SMILES is read from it. Phg = N[C@H](C(=O)O)c1ccccc1
Assay: Sweetness intensity based on informal panel testing
Type: in vivo
Settings: not given
`CC1(C)SC(C)(C)C1NC(=O)[C@H](NC(=O)[C@@H](N)CC(=O)O)c1ccccc1` [Example 11, alpha-L-Aspartyl-D-phenylglycine-2,2,4,4-tetramethylthietan-3-yl amide] gave a sweetness intensity of 100 X.
With “alpha-L-Aspartyl-D-phenylglycine-alpha-7-oxa-fenchyl ester [Example 14]” the sweetness intensity was “approximately 1000 X”.

Assay: not given
Settings: prior art value; cited from earlier work
In the case of `C[C@@H](NC(=O)[C@@H](N)CC(=O)O)C(=O)NC1C(C)(C)S(=O)(=O)C1(C)C`, the sweetness intensity is listed as 1000 times that of sucrose.
For `C[C@@H](NC(=O)[C@@H](N)CC(=O)O)C(=O)NC1C(C)(C)SC1(C)C` [2,2,4,4-tetramethylthietan-3-yl], the sweetness intensity is given as 2000 times that of sucrose.
For `CC1CCC(C)C1NC(=O)[C@@H](C)NC(=O)[C@@H](N)CC(=O)O` (stereo partly drawn) [2,5 dimethylcyclopentyl], the sweetness intensity is listed as 520 times that of sucrose.
For `CC1CCCC(C)C1NC(=O)[C@@H](C)NC(=O)[C@@H](N)CC(=O)O` (stereo partly drawn) [2,6-dimethylcyclohexyl], the sweetness intensity is given as 600 times that of sucrose.
For `CCOC(=O)C(NC(=O)[C@@H](N)CC(=O)O)C(=O)OC1C2(C)CCC(C2)C1(C)C` (stereo partly drawn) [R' is fenchyl and R is ethyl], the sweetness intensity is given as 4200-5400 times that of sucrose.
In the case of `COC(=O)C(NC(=O)[C@@H](N)CC(=O)O)C(=O)OC1C2(C)CCC(C2)C1(C)C` (stereo partly drawn) [R' is fenchyl and R is methyl], the sweetness intensity is given as 22,200-33,200 times that of sucrose.
In the case of `O=C1NS(=O)(=O)c2ccccc21` [Saccharin, saccharin], the sweetness intensity is listed as “about 300 times that of sucrose”.
In the case of `COC(=O)[C@H](Cc1ccccc1)NC(=O)[C@@H](N)CC(=O)O` [aspartame, alpha-L-aspartyl-L-phenylalanine methyl ester] (H-Asp-Phe-OMe), the sweetness intensity is given as 150-200 times that of sucrose.
In the case of `C[C@@H](NC(=O)[C@@H](N)CC(=O)O)C(=O)NC(C1CC1)C1CC1` [dicyclopropylcarbinyl], the sweetness intensity is given as 1200 times that of sucrose.
In the case of `COC(=O)[C@@H](NC(=O)[C@@H](N)CC(=O)O)c1ccccc1` [methyl ester of L-aspartyl-L-phenylglycine] (H-Asp-[Phg]-OMe), the sweetness intensity is listed as 100-1000 times that of sucrose.

Same assay, conditions: taste description from prior art; cited from earlier work
For `COC(=O)[C@@H](Cc1ccccc1)NC(=O)[C@@H](N)CC(=O)O` [methyl ester of L-aspartyl-D-phenylalanine] (H-Asp-[dF]-OMe), the taste is given as “bitter”.
In the case of `COC(=O)[C@@H](NC(=O)[C@@H](N)CC(=O)O)c1ccccc1` [methyl ester of L-aspartyl-L-phenylglycine] (H-Asp-[Phg]-OMe), the taste is given as “quite sweet”.

Assay: Sweetness intensity relative to sucrose, taste panel comparison with five sucrose standard samples
Type: in vivo, Male subjects
Settings: relative to sucrose (w/v); test sample about 22°C, prepared at a concentration equal to about 8-10% sucrose
Method: The subjects were asked to taste and expectorate about 10 ml of a test sample (temperature of about 22°C) having dissolved therein the ester or amide. The subjects were then asked to compare the sweetness of the test sample with five standard samples which contained increasing amounts of sucrose. The standard samples were letter coded A, B, C, D and E and were designated on a ballot by a closed linear scale. Sweetness intensity of the test sample was recorded by the subject making a mark on the linear scale at a point they considered equal in sweetness among the standard samples; interpolation between standards was encouraged. After completion of the panel, a five point numeric scale was superimposed on the linear scales to obtain numerical data; data were averaged and recorded to the nearest 0.25 unit. Equivalent sucrose sweetness was determined by referring to graphs of (wlv) sucrose concentration in the standard samples versus a linear numeric scale.
Sweetness intensity was calculated by dividing the concentration (w/v) of perceived sweeteness by the concentration (wlv) of the ester or amide required to produce that sweetness. […] The test sample was prepared at a concentration which would be equal to about 8-10% sucrose.
Molecule `CC1(C)[C@@H]2CC[C@@](C)(C2)[C@@H]1OC(=O)[C@H](NC(=O)[C@@H](N)CC(=O)O)c1ccccc1` [Example 1, alpha-L-Aspartyl-D-phenylglycine-(-)-alpha-fenchyl ester] has a sweetness intensity of 1750 X.
Work on `CC(OC(=O)[C@H](NC(=O)[C@@H](N)CC(=O)O)c1ccccc1)C(C)(C)C` (stereo partly drawn) [Example 2, 3,3-Dimethyl-2-butyl ester] yielded a sweetness intensity of 30 X.
`CC1CCC(C)C1OC(=O)[C@H](NC(=O)[C@@H](N)CC(=O)O)c1ccccc1` (stereo partly drawn) [Example 4, 2,5-Dimethylcyclopentyl ester] gave a sweetness intensity of 370 X.
In the case of `N[C@@H](CC(=O)O)C(=O)N[C@@H](C(=O)NC(C1CC1)C1CC1)c1ccccc1` [Example 12, alpha-L-Aspartyl-D-phenylglycinedicyclopropylcarbinyl amide], the sweetness intensity is reported as 80 X.
(±) endo-Norbornyl ester [Example 5] gave a sweetness intensity of 20 X.
(±) exo-Norbornyl ester [Example 6] showed a sweetness intensity of 150 X.
For “alpha-L-Aspartyl-D-phenylglycine-(+)-beta-fenchyl ester [Example 8b]”, the sweetness intensity was 5000 X.
In the case of “alpha-L-Aspartyl-D-phenylglycine-(-)-beta-fenchyl ester [Example 8a]”, the sweetness intensity is reported as 600 X.

Assay: not given
Settings: in most carbonated beverages; background statement; cited from earlier work
In the case of `COC(=O)[C@H](Cc1ccccc1)NC(=O)[C@@H](N)CC(=O)O` [aspartame, alpha-L-aspartyl-L-phenylalanine methyl ester] (H-Asp-Phe-OMe), the hydrolytic stability is listed as “hydrolytically unstable”.

Assay: Solubility for the sweetness intensity measurement
Type: physicochemical
Settings: sweetness intensity test sample
With `CC1CCCC(C)C1NC(=O)[C@H](NC(=O)[C@@H](N)CC(=O)O)c1ccccc1` (stereo partly drawn) [Example 10, 2,6-Dimethylcyclohexyl amide] the solubility was “too Insoluble for an accurate sweetness intensity measurement”.

— patent EP0168112A2, “Alpha-L-aspartyl-D-phenylglycine esters and amides useful as high intensity sweeteners” (THE PROCTER & GAMBLE COMPANY, priority 1984, dated 1986)
